Source: paper PMC4355590, “A Kinetic Study of the Main Guaco Metabolites Using Syrup Formulation and the Identification of an Alternative Route of Coumarin Metabolism in Humans” (PLoS ONE, 2015)
Values after ≈ are worked out from the molar mass of the structure shown. Where two headings read alike, the source gives them in different places.

What was measured:
[1] = Stability of stock solutions and working standard solutions; format: physicochemical; settings: for Mean recovery: n = 8, ± SD
Experimental: The stability of the stock solutions (1 mg/mL of each analyte and ISs) was evaluated after 30 days of storage in a refrigerator (4°C, amber bottles). The stored solutions were diluted with acetonitrile/water (70:30 v/v) to obtain the same concentration levels as the short-term stability assay. The stability of the stock solutions was evaluated by comparing the mean recovery of the analytes and IS obtained from stored samples to the mean values obtained with freshly prepared samples, at the same concentration levels. The stability of the working standard solutions was assessed using a procedure similar to that described for stock solution stability. […]

[2] = system: allergic airway inflammation; set-up: method as in PMID 19289114; settings: mice, 60 mg/kg; cited from earlier work
[3] = Second screening: 60 mL of guaco syrup spiked with 100, 500, 1000 or 1500 mg of COU; format: in vivo, human
Experimental: All the volunteers fasted for 8 h prior to the administration of guaco syrup and blood collection. Blood samples (3.0 mL) were collected (using flexible catheter 18–20G) before the syrup administration (zero min) and at fifteen time points after the syrup administration (10, 20, 30, 45, 60, 75, 90, 120, 150, 180, 240, 360, 480, 540 and 600 min). The anticoagulant used was tetrasodium edetate. All the samples were immediately centrifuged at 4000 rpm (5.0 min, room temperature), and the plasma was aliquoted and frozen at -40°C until analysis. The pharmacokinetic analysis was performed using a non-compartmental model, considering an extravascular administration route and using WinNonlin Professional software, version 5.3. The relationships among the areas under the curves (r areas = AUC0-t/AUC0-inf), were used to confirm the suitability of the experimental design. Values greater than 0.8 indicated an appropriate experimental design.

[4] = system: guinea pig tracheas; set-up: method as in PMID 16084046; settings: cited from earlier work
[5] = system: histamine inhalation; set-up: method as in PMID 16084046; settings: guinea pigs; cited from earlier work
[6] = set-up: method as in PMID 598421; settings: cited from earlier work
[7] = 8 h at room temperature, high level (Coumarin 1250.0, 7-hydroxycoumarin 750.0, o-coumaric acid 750.0, Kaurenoic acid 500.0 ng/mL)
[8] = 8 h at room temperature, high level, stored vs freshly prepared
[9] = 8 h at room temperature, low level (Coumarin 50.0, 7-hydroxycoumarin 12.5, o-coumaric acid 25.0, Kaurenoic acid 10.0 ng/mL)
[10] = 8 h at room temperature, low level, stored vs freshly prepared
[11] = 30 days at 4 °C (stock solutions), high level (1250.0, 750.0, 750.0, 500.0 ng/mL)
[12] = 30 days at 4 °C (stock solutions), low level (50.0, 12.5, 25.0, 10.0 ng/mL)

Mean recovery [1, 7] [ng/mL] | RE [1, 8] [%] | Mean recovery [1, 9] [ng/mL] | RE [1, 10] [%] | Mean recovery [1, 11] [ng/mL] | Mean recovery [1, 12] [ng/mL] | RE ([1]; 30 days at 4 °C, high level) [%] | RE ([1]; 30 days at 4 °C, low level) [%] | time of peak absorption after syrup administration ([3]; all four volunteers, 100, 500, 1000 and 1500 mg COU) [min] | Tmax ([3]; both sexes, human, plasma, oral, read-out: time of peak concentration in plasma) [h] | concentration at 10 min ([3]; human, plasma, oral, 100 mg dosage, 10 min after syrup administration) [µg/mL] | SMILES | attenuation of allergic airway inflammation [2] | EC50, relaxing effect ([4]; guinea pig tracheas pre-contracted with carbachol) [mg/L] | EC50, relaxing effect ([4]; guinea pig tracheas pre-contracted with histamine) [mg/L] | AD50 (adequate dose protecting 50% of the tested animals) [5] [mg/kg] | bioavailability [6] [%]
757.9 ± 5.6 | 1.06 | 11.6 ± 0.6 | -7.41 | 791.8 ± 60.5 | 11.4 ± 0.9 | 5.57 | -8.02 | – | – | – | O=c1ccc2ccc(O)cc2o1 [7-HCOU, 7-hydroxycoumarin] | significant attenuation | – | – | – | –
1293.1 ± 30.5 | 3.45 | 54.5 ± 3.2 | 8.94 | 1173.4 ± 67.9 | 56.1 ± 2.3 | -6.13 | 12.27 | 10 | 0.75 to 2 | 0.0221 | O=c1ccc2ccccc2o1 [COU, 1,2 benzopyrone] | – | 33.4 (≈ 229 µM) | 35.0 (≈ 239 µM) | 75 | 3.4
718.0 ± 48.0 | -4.26 | 22.6 ± 1.3 | -9.44 | 640.8 ± 45.6 | 22.8 ± 1.2 | -14.55 | -8.89 | – | – | – | O=C(O)/C=C/c1ccccc1O [OCA, o-coumaric acid] | – | – | – | – | –
